Tests used:
coronary vessels = assay: vasodilator action on the coronary vessels: change in the oxygen tension in the coronary veinous blood (narcotized dogs, i.v.); type: in vivo; conditions: dog, 0.5 mg./kg. i.v., dihydrochloride
Method: (§1) With respect to the change in the oxygen tension in the coronary veinous blood, the pharmacological investigation of the vasodilator action on the coronary vessels was carried out in dogs according to the methods described by W.K.A. Schaper and his co-workers (see W.K.A. SCHAPER, R. XHONNEUX, and J.M. BOGAARD "Ueber die kontinuierliche Messung des Sauerstoffdruckes im venoesen Coronarblut" (Naunyn-Schmiedeberg's Arch. exp. Path. u. Pharmak. 245, 383-389 (1963)). The test preparations were applied intravenously to the narcotized and spontaneously breathing animals. On these test conditions the dilatation of the coronary arteries caused by the test substances along with the increase in the coronary blood flow led to an increase in the oxygen tension in the coronary veinous blood. This oxygen tension was measured according to polarographic methods by means of a platin electrode of the Gleichmann-Lubbers type (see U. GLEICHMANN and D.W. LUEBBERS "Die Messung des Sauerstoffdruckes in Gasen and Fluessigkeiten mit der Platin-Elektrode unter besonderer Berucksichtigung der Messung im Blut," Pflugers Arch. 271, 431-455 (1960)). The heart rate was continuously measured by electronic methods from systolic peaks of the arterial blood pressure. The arterial blood pressure was measured in the known manner in the femoral artery with the aid of an electromanometer of the Statham-strain-gauge type.
(§2) The following table gives the results of the pharmacological investigations which were carried through. The preparations were tested in the form of their respective dihydrochlorides: […]

[1] = heart rate, continuously measured from systolic peaks of the arterial blood pressure (narcotized dogs, i.v.); type: in vivo; conditions: dog, 0.5 mg./kg. i.v., dihydrochloride
Method: as §1, with “The arterial blood pressure was measured in the known manner in the femoral artery with the aid of an electromanometer of the Statham-strain-gauge type.” left out

[2] = arterial blood pressure in the femoral artery (narcotized dogs, i.v.); type: in vivo; conditions: dog, 0.5 mg./kg. i.v., dihydrochloride
Method: as §1, §2

LD 50 Mouse = conditions: in vivo, iv, dihydrochloride

| Compound | Maximal Increase in Oxygen Tension in the Coronary Veinous Blood (coronary vessels) | Maximal Increase in Oxygen Tension in the Coronary Veinous Blood (coronary vessels; duration) | Maximal Change in the Heart Rate [1] | Maximal Change in the Heart Rate ([1]; duration) | Maximal Change in the Blood Pressure (diastolic) ([2]; diastolic) | Maximal Change in the Blood Pressure ([2]; duration) | Maximal Change in the Blood Pressure (systolic) ([2]; systolic) | LD50 (LD 50 Mouse) |
| --- | --- | --- | --- | --- | --- | --- | --- | --- |
| COc1ccc(CN2CCN(CC(Cc3c(C)c4ccc(OC)c(OC)c4oc3=O)OC(=O)c3cc(OC)c(OC)c(OC)c3)CC2)cc1OC (stereo not drawn) [3-[γ-(N-3,4-dimethoxy-benzyl-piperazino)-β-(3,4,5-trimethoxybenzoxy)-propyl]-4-methyl-7,8-dimethoxy-coumarin] | +60% | > 25 min | -20% | > 25 min | -66% | > 25 min | -57% | – |
| COc1cc(C(=O)OC(Cc2c(C)c3ccc(OC)c(OC)c3oc2=O)CN2CCN(CC(=O)Nc3c(C)cccc3C)CC2)cc(OC)c1OC (stereo not drawn) [3-[γ-{N-(2,6-dimethyl-anilidocarbonylmethyl)-piperazino}-β-(3,4,5-trimethoxybenzoxy)-propyl]-4-methyl-7,8-dimethoxy-courmarin] | +36% | > 20 min | – | – | – | – | – | > 400 mg/kg |

Source: patent US3959281A, “Piperazino substituted coumarin derivatives” (Cassella Farbwerke Mainkur Aktiengesellschaft, priority 1968, dated 1976)
